US20260055108A1, “TRIAZINE COMPOUNDS AND USES THEREOF” (HUTCHMED LIMITED, priority 2022, published 2026)

Legend:
[1] = biological target: Recombinant human Menin protein (2-610) / MLL polypeptide binding (Homo sapiens (Human), UniProt O00255); assay: Menin and MLL protein binding at a molecular level (fluorescence polarization method); details: inhibition of Menin / MLL polypeptide binding
From the text: Example 3: Determination of the Activity of the Compounds of the Present Invention on Menin and MLL Protein Binding at a Molecular Level (Fluorescence Polarization Method)
1. Reagents, Materials and Instruments:
• Recombinant human Menin protein (2-610): ChemPartner, CP2021020801; • MLL polypeptide (6-FAM-Ahx-SG-40): GL Biochem, 865700; • Trizma® hydrochloride buffer solution (Tris): Sigma, T2194-1 L; • NaCl: Invitrogen, AM9760G; • TCEP: Sigma, 646547; • DMSO: Sigma, D4540; • 384-well plate: Corning, 4514; • Envision: PerkinElmer.
2. Preparation of Reaction Solutions
• 1) Buffer solution: 20 mL of Tris and 4 mL of NaCl were added respectively to 376 mL of ddH2O, with pH adjusted to 7.5, and TCEP was added before testing with a dilution ratio of 1:500. • 2) 5× test compounds: the test compound was subjected to gradient dilution with the buffer solution to 5-fold the reaction concentration, so that the final concentrations of the compound were 1.000, 0.333, 0.111, 0.037, 0.012, 0.004, 0.001 and 0.0005 μM, respectively. • 3) 2.5× Menin protein reaction solution: the Menin protein was diluted to 5 nM with the buffer solution. • 4) 2.5×MLL polypeptide reaction solution: the MLL polypeptide was diluted to 5 nM with the buffer solution.
1) Binding Reaction (20 μL System)
4 μL of 5× test compound was added to each reaction well of the 384-well plate, and the corresponding volume of 10% DMSO was added to the control wells. Except the control wells, 8 μL of Menin protein reaction solution was added to each well. The reaction solution was incubated at room temperature for 30 minutes, and then 8 μL of MLL polypeptide reaction solution was added to each well. The final concentrations of DMSO in the test compound wells and control wells were all 2%. The 384-well plate was sealed and incubated at room temperature for 30 minutes in the dark.
Three control groups were set up: • a blank control group only containing a buffer solution; • a negative control group only containing MLL polypeptide reaction solution; and • a positive control group containing Menin protein reaction solution and MLL polypeptide reaction solution.
The vertical polarization S value and the horizontal polarization P value (excitation wavelength was 480 nm, and emission wavelength was 535 nm) were measured with Envision.
Corrected S is the S value of the negative control group—the S value of the blank control group
Corrected P is the P value of the negative control group—the P value of the blank control group
(§1) • calculated by using software XL-Fit™ (version 5.3) supplied by ID Business Solutions (Guildford, UK), which is an additional software to Microsoft Excel.

[2] = system: MV-4-11 cells (human acute myelogenous leukemia cell line carrying MLL-AF4 mutation); assay: Cell proliferation assay, MV-4-11 (CellTiter-Glo); type: cell-based; details: Homo sapiens, MV4-11, 72 h, MV-4-11 cells, 3 days treatment, CellTiter-Glo; read-out: GI50
Description: Example 4 Cell Proliferation Assay
MV-4-11 (ATCC, CRL-9591), a human acute myelogenous leukemia cell line carrying MLL-AF4 mutation. Cells were cultured in an IMDM medium containing 10% heat-inactivated fetal bovine serum (HIFBS) and supplemented with 50 μM β-mercaptoethanol.
2. Reagents, Materials and Instruments:
• IMDM culture solution: GIBCO, 12440-053; • HIFBS: GIBCO, 10100-147; • β-mercaptoethanol: Sigma, M3148; • CellTiter-Glo® 2.0 assay kit (CTG): Promega, G9243; • DMSO: Sigma, D4540; • 96-well cell culture plate: Corning, 3903; • Envision: PerkinElmer.
MV-4-11 cells were resuspended in a medium, added to a 96-well plate at a density of 3000 cells/well with a volume of 100 μL/well, and cultured in a cell incubator at 5% CO2 and 37° C. for 4 hours. The test compound subjected to gradient dilution with the medium was added to a cell culture plate, and the final concentrations of the compound were 1.100, 0.367, 0.122, 0.041, 0.014, 0.005, 0.002 and 0.001 μM, respectively. The corresponding volume of DMSO diluent was added to a blank control well, and the final concentrations of DMSO in the experimental group and control group were both 0.1%. The cell plate was placed in a cell incubator at 5% CO2 and 37° C. and cultured for 3 days.
On day 0 and day 3 of the treatment, 50 μL/well CTG reagent was added to the cell plate and shaken at room temperature in the dark for 10 min, and then the chemiluminescence value of each well was measured with Envision.
[formula] • wherein: • luminescence valuetest sample: the chemiluminescence value of a cell well treated with the test compound for 3 days. • luminescence valueday 0: the chemiluminescence value of a cell well at day 0. • luminescence valuecell well: the chemiluminescence value of a cell well not treated with the compound for 3 days.
as §1

Chain of Recombinant human Menin protein (2-610) / MLL polypeptide binding (O00255 2-610): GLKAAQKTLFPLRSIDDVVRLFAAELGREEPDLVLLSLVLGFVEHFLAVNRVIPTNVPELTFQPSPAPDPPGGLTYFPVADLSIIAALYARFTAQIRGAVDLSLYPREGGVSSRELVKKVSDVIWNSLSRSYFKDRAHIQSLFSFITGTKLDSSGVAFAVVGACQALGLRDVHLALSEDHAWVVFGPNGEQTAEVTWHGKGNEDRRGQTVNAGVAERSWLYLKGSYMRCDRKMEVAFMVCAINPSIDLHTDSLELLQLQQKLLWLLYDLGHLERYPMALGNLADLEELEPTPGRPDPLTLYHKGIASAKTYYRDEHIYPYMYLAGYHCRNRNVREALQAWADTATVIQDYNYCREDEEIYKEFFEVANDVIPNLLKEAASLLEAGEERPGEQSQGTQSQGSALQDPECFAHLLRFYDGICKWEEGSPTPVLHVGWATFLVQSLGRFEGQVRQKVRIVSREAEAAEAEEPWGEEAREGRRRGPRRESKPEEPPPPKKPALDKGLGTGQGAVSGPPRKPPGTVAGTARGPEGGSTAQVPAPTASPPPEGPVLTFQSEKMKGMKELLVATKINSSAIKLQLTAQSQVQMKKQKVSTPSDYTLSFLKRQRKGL

Row | SMILES | IC50 [1] | GI50 [2]
1 | CCN(C(=O)c1cc(F)ccc1Oc1nncnc1N1CC2(CCN(Cc3ccc4[nH]ccc4c3)CC2)C1)C(C)C [Compound 62] | 324 nM | 193 nM
2 | CCN(C(=O)c1cc(F)ccc1Oc1nncnc1N1CC2(CCN(Cc3ccc4[nH]ncc4c3)CC2)C1)C(C)C [Compound 64] | 163 nM | 226 nM
3 | CCN(C(=O)c1cc(F)ccc1Oc1nncnc1N1CC2(CCN(Cc3ccc4[nH]c(C#N)cc4c3C)CC2)C1)C(C)C [Compound 66] | 1.2 nM | 3 nM
4 | CCN(C(=O)c1cc(F)ccc1Oc1nncnc1N1CC2(CCN(Cc3ccc4oc(C)nc4c3)CC2)C1)C(C)C [Compound 67] | 512 nM | 309 nM
5 | CCN(C(=O)c1cc(F)ccc1Oc1nncnc1N1CC2(CCN(Cc3ccc4oc(C)cc4c3)CC2)C1)C(C)C [Compound 68] | 50.2 nM | 71 nM
6 | CCN(C(=O)c1cc(F)ccc1Oc1nncnc1N1CC2(CCN(Cc3ccc4oc(C#N)cc4c3)CC2)C1)C(C)C [Compound 69] | 8.5 nM | 16 nM
7 | CCN(C(=O)c1cc(F)ccc1Oc1nncnc1N1CC2(CCN(Cc3ccc4nc(OC)ncc4c3)CC2)C1)C(C)C [Compound 70] | > 1000 nM | 2150 nM
8 | CCN(C(=O)c1cc(F)ccc1Oc1nncnc1N1CC2(CCN(Cc3ccc4nc(C)ncc4c3)CC2)C1)C(C)C [Compound 71] | > 1000 nM | 1280 nM
9 | CCN(C(=O)c1cc(F)ccc1Oc1nncnc1N1CC2(CCN(Cc3ccc4[nH]c(=O)ccc4c3)CC2)C1)C(C)C [Compound 72] | 28 nM | 81 nM
10 | CCN(C(=O)c1cc(F)ccc1Oc1nncnc1N1CC2(CCN(Cc3cnc4c(c3)OC[C@H](c3ccc(OC)nc3)O4)CC2)C1)C(C)C [Compound 73] | > 1000 nM | 1270 nM
11 | CCN(C(=O)c1cc(F)ccc1Oc1nncnc1N1CC2(CCN(Cc3ccc4oc(C(=O)NC)cc4c3)CC2)C1)C(C)C [Compound 74] | 418 nM | 176 nM
12 | CCN(C(=O)c1cc(F)ccc1Oc1nncnc1N1CC2(CCN(Cc3ccc4oc(C(=O)NC)c(C)c4c3)CC2)C1)C(C)C [Compound 75] | 955 nM | 883 nM
13 | C[C@H]1CN(C)CCN1C(=O)c1cc(F)ccc1Oc1nncnc1N1CC2(CCN(CC3CCN(c4ccccn4)CC3)CC2)C1 [Compound 76] | 878 nM | 932 nM
14 | C[C@H]1COCCN1C(=O)c1cc(F)ccc1Oc1nncnc1N1CC2(CCN(CC3CCN(c4ccccn4)CC3)CC2)C1 [Compound 77] | 73.8 nM | 60 nM
15 | CCN(C(=O)c1cc(F)ccc1Oc1nncnc1N1CC2(CCN(CC3CCN(c4ncccn4)CC3)CC2)C1)C(C)C [Compound 78] | 28.8 nM | 20 nM
16 | CCN(C(=O)c1cc(F)ccc1Oc1nncnc1N1CC2(CCN(CC3CCN(c4ccn(C)n4)CC3)CC2)C1)C(C)C [Compound 79] | 57.7 nM | 78 nM
17 | CCN(C(=O)c1cc(F)ccc1Oc1nncnc1N1CC2(CCN(CC3CCN(c4nc(C#N)co4)CC3)CC2)C1)C(C)C [Compound 80] | 6.6 nM | 16 nM
18 | CCN(C(=O)c1cc(F)ccc1Oc1nncnc1N1CC2(CCN(CC3CCN(c4ccc(=O)n(C)n4)CC3)CC2)C1)C(C)C [Compound 81] | 54.9 nM | 117 nM
19 | CCN(C(=O)c1cc(F)ccc1Oc1nncnc1N1CC2(CCN(CC3CCN(c4ccn5nccc5n4)CC3)CC2)C1)C(C)C [Compound 82] | 2.6 nM | 7 nM

Row | SMILES | IC50 [1] | GI50 [2]
20 | CCN(C(=O)c1cc(F)ccc1Oc1nncnc1N1CC2(CCN(CC3CCN(c4ccc(C)nn4)CC3)CC2)C1)C(C)C [Compound 84] | 0.9 nM | 2 nM
21 | CCN(C(=O)c1cc(F)ccc1Oc1nncnc1N1CC2(CCN(CC3CCN(c4cc(C)cnn4)CC3)CC2)C1)C(C)C [Compound 85] | 4.2 nM | 6 nM
22 | Cc1ccc(N2CCC(CN3CCC4(CC3)CN(c3ncnnc3Oc3ccc(F)cc3-c3ccnn3C(C)C)C4)CC2)nn1 [Compound 86] | 1.1 nM | 6 nM
23 | CCN(C(=O)c1cc(F)ccc1Oc1nncnc1N1CC2(CCN(CC3CCN(c4ccc(N)nn4)CC3)CC2)C1)C(C)C [Compound 87] | 37.2 nM | 156 nM
24 | CCN(C(=O)c1cc(F)ccc1Oc1nncnc1N1CC2(CCN(CC3CCN(c4ccc(OC)nn4)CC3)CC2)C1)C(C)C [Compound 88] | 1.1 nM | 4 nM
25 | CCN(C(=O)c1cc(F)ccc1Oc1nncnc1N1CC2(CCN(CC3CCN(c4cc(OC)cnn4)CC3)CC2)C1)C(C)C [Compound 89] | 2.8 nM | 4 nM
26 | CCN(C(=O)c1cc(F)ccc1Oc1nncnc1N1CC2(CCN(CC3CCN(c4cc(OC)c(OC)nn4)CC3)CC2)C1)C(C)C [Compound 90] | 2.1 nM | 2 nM
27 | CC(C)n1nccc1-c1cc(F)ccc1Oc1nncnc1N1CC2(CCN(CC3CCN(c4ccc(C(F)(F)F)nn4)CC3)CC2)C1 [Compound 91] | 3.1 nM | 13 nM
28 | COc1cc(N2CCC(CN3CCC4(CC3)CN(c3ncnnc3Oc3ccc(F)cc3-c3ccnn3C)C4)CC2)nnc1OC [Compound 92] | 10.9 nM | 22 nM
29 | CCN(C(=O)c1cc(F)ccc1Oc1nncnc1N1CC2(CCN(CC3CCN(c4cc(OC)c(OC)nn4)CC3)C2)C1)C(C)C [Compound 93] | 0.6 nM | 2 nM
30 | CCN(C(=O)c1cc(F)ccc1Oc1nncnc1N1CCC2(CN(CC3CCN(c4cc(OC)c(OC)nn4)CC3)C2)C1)C(C)C [Compound 94] | 0.8 nM | 2 nM
31 | CCOc1cc(N2CCC(CN3CCC4(CC3)CN(c3ncnnc3Oc3ccc(F)cc3C(=O)N(CC)C(C)C)C4)CC2)nnc1OCC [Compound 95] | 3.2 nM | 9 nM
32 | CCN(C(=O)c1cc(F)ccc1Oc1nncnc1N1CC2(CCN(CC3CCN(c4nnc(OC)cc4OC)CC3)CC2)C1)C(C)C [Compound 96] | 30 nM | 59 nM
33 | CCN(C(=O)c1cc(F)ccc1Oc1nncnc1N1CC2(CCN(CC3CCN(c4cc(C)c(OC)nn4)CC3)CC2)C1)C(C)C [Compound 97] | 0.9 nM | 1 nM
34 | CCN(C(=O)c1cc(F)ccc1Oc1nncnc1N1CC2(CCN(CC3CCN(c4nnc(OC)cc4C)CC3)CC2)C1)C(C)C [Compound 98] | 7.1 nM | 12 nM
35 | COc1cc(N2CCC(CN3CCC4(CC3)CN(c3ncnnc3Oc3ccc(F)cc3C(=O)N3CCCC3)C4)CC2)nnc1OC [Compound 99] | 14.7 nM | 26 nM
36 | COc1cc(N2CCC(CN3CCC4(CC3)CN(c3ncnnc3Oc3ccc(F)cc3C(=O)N3CCC[C@H]3C)C4)CC2)nnc1OC [Compound 100] | 1.9 nM | 9 nM
37 | COc1cc(N2CCC(CN3CCC4(CC3)CN(c3ncnnc3Oc3ccc(F)cc3-c3ccnn3C(C)C)C4)CC2)nnc1OC [Compound 101] | 0.9 nM | 2 nM
38 | COc1cc(N2CCC(CN3CCC4(CC3)CN(c3ncnnc3Oc3ccc(F)cc3)C4)CC2)nnc1OC [Compound 102] | 15.9 nM | 28 nM
